# Marks after values point to notes of the source that are not given here.
# Biological target: T1, Porcine ventricle myofibrils (ventricular myosin ATPase) (Sus scrofa, UniProt P79293)
# T1 construct: Myofibrils from porcine cardiac muscle was isolated from the left ventricle of Yucatan minipigs; tissue Exemplar Genetics; host or cells: left ventricle of Yucatan minipigs, myofibrils prepared in house
# Test: Myofibril ATPase assay, porcine ventricle myofibrils
# Format: biochemical, porcine (Yucatan minipigs)
# Conditions: Y75 value (no ‡ mark); porcine ventricle myofibrils
# Summary of the method: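 Read-out: A340 kinetic, NADH consumption coupled to ADP via PK-LDH, 75 min. Yucatan minipig LV myofibrils, pCa buffer (PIPES/CaCl2/EGTA, pH 7.0). Linear-regression slope (mAU/min), vehicle = 100%, 4PL fit; Y75 or Y125 reported.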
# T1 sequence (P79293 whole entry): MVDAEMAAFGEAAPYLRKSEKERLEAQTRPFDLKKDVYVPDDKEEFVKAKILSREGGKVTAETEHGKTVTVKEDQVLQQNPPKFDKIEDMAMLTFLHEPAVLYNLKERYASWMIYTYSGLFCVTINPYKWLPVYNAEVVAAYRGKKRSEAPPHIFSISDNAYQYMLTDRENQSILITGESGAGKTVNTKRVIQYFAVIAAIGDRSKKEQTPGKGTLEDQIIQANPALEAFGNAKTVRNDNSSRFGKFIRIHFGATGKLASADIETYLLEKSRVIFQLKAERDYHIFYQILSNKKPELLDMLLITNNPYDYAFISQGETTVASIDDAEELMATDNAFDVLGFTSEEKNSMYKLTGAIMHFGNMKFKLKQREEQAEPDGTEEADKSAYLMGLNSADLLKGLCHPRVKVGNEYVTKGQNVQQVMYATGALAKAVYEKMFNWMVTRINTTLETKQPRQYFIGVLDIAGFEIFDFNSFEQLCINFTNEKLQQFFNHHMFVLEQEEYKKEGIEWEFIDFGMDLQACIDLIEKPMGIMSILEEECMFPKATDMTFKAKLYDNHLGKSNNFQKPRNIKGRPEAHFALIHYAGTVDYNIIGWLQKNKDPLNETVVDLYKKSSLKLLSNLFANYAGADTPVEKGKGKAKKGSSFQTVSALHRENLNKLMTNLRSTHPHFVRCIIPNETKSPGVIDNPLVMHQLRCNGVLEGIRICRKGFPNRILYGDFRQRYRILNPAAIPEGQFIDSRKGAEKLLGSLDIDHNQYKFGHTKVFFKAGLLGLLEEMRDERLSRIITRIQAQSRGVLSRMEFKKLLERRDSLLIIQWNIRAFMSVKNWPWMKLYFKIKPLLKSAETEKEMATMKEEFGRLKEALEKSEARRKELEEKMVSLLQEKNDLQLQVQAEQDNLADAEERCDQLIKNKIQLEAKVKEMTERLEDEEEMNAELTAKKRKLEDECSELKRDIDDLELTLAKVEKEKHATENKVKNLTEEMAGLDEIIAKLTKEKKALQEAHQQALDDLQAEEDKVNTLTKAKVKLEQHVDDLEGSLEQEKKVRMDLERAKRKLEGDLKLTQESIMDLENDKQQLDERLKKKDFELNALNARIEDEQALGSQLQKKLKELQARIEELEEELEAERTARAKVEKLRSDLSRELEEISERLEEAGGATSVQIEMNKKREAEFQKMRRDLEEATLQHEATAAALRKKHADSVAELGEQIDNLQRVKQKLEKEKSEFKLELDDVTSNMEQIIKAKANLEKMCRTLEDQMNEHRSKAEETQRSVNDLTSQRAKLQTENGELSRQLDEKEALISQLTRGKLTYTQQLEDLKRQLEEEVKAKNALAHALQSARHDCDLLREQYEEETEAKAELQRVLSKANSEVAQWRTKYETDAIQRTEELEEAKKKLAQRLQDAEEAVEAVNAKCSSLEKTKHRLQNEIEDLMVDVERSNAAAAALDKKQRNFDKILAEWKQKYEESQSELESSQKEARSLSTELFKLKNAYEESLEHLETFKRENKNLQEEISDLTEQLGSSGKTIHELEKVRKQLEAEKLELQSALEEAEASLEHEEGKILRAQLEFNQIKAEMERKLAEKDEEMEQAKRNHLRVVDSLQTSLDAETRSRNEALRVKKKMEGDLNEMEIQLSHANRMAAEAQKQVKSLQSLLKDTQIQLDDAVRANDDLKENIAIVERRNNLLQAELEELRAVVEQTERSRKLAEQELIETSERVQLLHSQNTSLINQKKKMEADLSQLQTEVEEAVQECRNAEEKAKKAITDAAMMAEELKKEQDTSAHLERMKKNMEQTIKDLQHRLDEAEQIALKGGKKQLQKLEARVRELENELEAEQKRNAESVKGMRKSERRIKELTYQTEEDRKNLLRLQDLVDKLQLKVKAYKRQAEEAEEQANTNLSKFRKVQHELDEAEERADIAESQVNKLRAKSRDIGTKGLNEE
row,Structure (SMILES),Ventricular EC25 [nM]
1,Cc1c(CC(=O)N[C@@H](C)c2ccc(F)cc2F)c(=O)[nH]c2ccc(F)c(F)c12 [compound 116],130
2,O=C(Cc1cc2c(F)c(F)ccc2[nH]c1=O)N1CC2CC1c1ccccc12 (stereo not drawn) [compound 4504],470
3,"Cc1c(CC(=O)N[C@@H](C)c2ncc(C#N)cn2)c(=O)[nH]c2ccc(F)c(Cl)c12 (single isomer, unassigned) [compound 2056]",290
4,Cc1c(CC(=O)N[C@@H](C)c2ccc(F)cc2F)c(=O)[nH]c2cccc(F)c12 [compound 130],150

# Same assay, conditions: porcine ventricle myofibrils; Y75 value
row,Structure (SMILES),Ventricular EC25 [nM]
1,"Cc1nccc2[nH]c(=O)c(C3(C(=O)N[C@H](C)c4ncc(C#N)cc4F)CC3)c(C)c12 (single isomer, unassigned) [compound 3519]",17070
2,"Cc1nccc2[nH]c(=O)c(C(F)(F)C(=O)N[C@@H](CO)c3ncc(C#N)cc3F)c(C)c12 (single isomer, unassigned) [compound 3523]",21660
3,"C[C@H](NC(=O)[C@H](C)c1cc2c(F)nccc2[nH]c1=O)c1ccc(F)cc1F (single isomer, unassigned) [compound 368]",43640
4,"Cc1nccc2[nH]c(=O)c([C@H](C)C(=O)N[C@H](C)c3ncc(C#N)cc3F)c(C)c12 (single isomer, unassigned) [compound 192]",14650
5,Cc1nccc2[nH]c(=O)c(CC(=O)N[C@H](CO)Cc3ccccc3)c(C)c12 [compound 495],100000
6,Cc1c(CC(=O)N[C@H](CO)c2ccc(C#N)cc2F)c(=O)[nH]c2ccc(C(F)(F)F)nc12 [compound 218],100000
7,Cc1nccc2[nH]c(=O)c(CC(=O)N[C@@H](C)c3ncc(C#N)cn3)c(C)c12 [compound 483],16670
8,C[C@H](NC(=O)Cc1cc2c(OCC(F)F)nccc2[nH]c1=O)c1ccc(F)cc1F [compound 389],100000
9,Cc1c(CC(=O)N[C@@H](CO)c2ccc(C#N)cc2F)c(=O)[nH]c2ccc(C(F)(F)F)nc12 [compound 219],7160
10,Cc1cnncc1[C@@H](C)NC(=O)Cc1c(C)c2c(C)nccc2[nH]c1=O [compound 480],100000
11,"COc1cccc([C@H](C)NC(=O)Cc2c(C)c3c(C)nccc3[nH]c2=O)n1 (single isomer, unassigned) [compound 310]",100000
12,Cc1nccc2[nH]c(=O)c(CC(=O)N[C@@H](C)c3ccc(F)cc3F)c(F)c12 [compound 150],680

# Test system: Porcine atria myofibrils (atrial myosin ATPase)
# Test: Myofibril ATPase assay, porcine atria myofibrils
# Format: biochemical
# Conditions: Y75 value (no ‡ mark); porcine atria myofibrils
# Summary of the method: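 Coupled PK-LDH reaction links ADP from myosin ATPase to NADH loss, read at 340 nm every 1.5-2 min for 75 min. Slopes (mAU/min) normalized to vehicle-only wells (100%) and fit to a 4-parameter logistic; Y75 is the concentration cutting activity by 25%, Y125 is reported for activators.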
row,Structure (SMILES),Atrial EC25 [nM]
1,Cc1c(CC(=O)N[C@@H](C)c2ccc(F)cc2F)c(=O)[nH]c2ccc(F)c(F)c12 [compound 116],40
2,O=C(Cc1cc2c(F)c(F)ccc2[nH]c1=O)N1CC2CC1c1ccccc12 (stereo not drawn) [compound 4504],920
3,"Cc1c(CC(=O)N[C@@H](C)c2ncc(C#N)cn2)c(=O)[nH]c2ccc(F)c(Cl)c12 (single isomer, unassigned) [compound 2056]",110
4,Cc1c(CC(=O)N[C@@H](C)c2ccc(F)cc2F)c(=O)[nH]c2cccc(F)c12 [compound 130],20

# Same assay, conditions: porcine atria myofibrils; Y75 value (75% activity relative to no compound)
row,Structure (SMILES),Atrial EC25 [nM]
1,"Cc1nccc2[nH]c(=O)c(C3(C(=O)N[C@H](C)c4ncc(C#N)cc4F)CC3)c(C)c12 (single isomer, unassigned) [compound 3519]",940
2,"Cc1nccc2[nH]c(=O)c(C(F)(F)C(=O)N[C@@H](CO)c3ncc(C#N)cc3F)c(C)c12 (single isomer, unassigned) [compound 3523]",9760
3,"C[C@H](NC(=O)[C@H](C)c1cc2c(F)nccc2[nH]c1=O)c1ccc(F)cc1F (single isomer, unassigned) [compound 368]",1660
4,"Cc1nccc2[nH]c(=O)c([C@H](C)C(=O)N[C@H](C)c3ncc(C#N)cc3F)c(C)c12 (single isomer, unassigned) [compound 192]",590
5,Cc1nccc2[nH]c(=O)c(CC(=O)N[C@H](CO)Cc3ccccc3)c(C)c12 [compound 495],100000
6,Cc1c(CC(=O)N[C@H](CO)c2ccc(C#N)cc2F)c(=O)[nH]c2ccc(C(F)(F)F)nc12 [compound 218],100000
7,Cc1nccc2[nH]c(=O)c(CC(=O)N[C@@H](C)c3ncc(C#N)cn3)c(C)c12 [compound 483],4030
8,C[C@H](NC(=O)Cc1cc2c(OCC(F)F)nccc2[nH]c1=O)c1ccc(F)cc1F [compound 389],710
9,Cc1c(CC(=O)N[C@@H](CO)c2ccc(C#N)cc2F)c(=O)[nH]c2ccc(C(F)(F)F)nc12 [compound 219],120
10,Cc1cnncc1[C@@H](C)NC(=O)Cc1c(C)c2c(C)nccc2[nH]c1=O [compound 480],100000
11,"COc1cccc([C@H](C)NC(=O)Cc2c(C)c3c(C)nccc3[nH]c2=O)n1 (single isomer, unassigned) [compound 310]",100000
12,Cc1nccc2[nH]c(=O)c(CC(=O)N[C@@H](C)c3ccc(F)cc3F)c(F)c12 [compound 150],60

# Test system: Rabbit Psoas myofibrils (skeletal myosin ATPase)
# Test: Myofibril ATPase assay, rabbit psoas (skeletal) myofibrils
# Format: biochemical
# Conditions: Y75 value (no ‡ mark); rabbit psoas myofibrils
# Summary of the method: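 Rabbit psoas skeletal myofibrils in PIPES/CaCl2/EGTA pCa buffer, pH 7.0. ATPase rate followed by PK-LDH-coupled NADH loss at 340 nm, read every 1.5–2 min for 75 min. Slopes normalized to vehicle (100%) and fitted to a 4-parameter logistic; values are Y75 (25% inhibition) or Y125 (25% activation) concentrations.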
row,Structure (SMILES),Skeletal EC25 [nM]
1,Cc1c(CC(=O)N[C@@H](C)c2ccc(F)cc2F)c(=O)[nH]c2ccc(F)c(F)c12 [compound 116],20
2,O=C(Cc1cc2c(F)c(F)ccc2[nH]c1=O)N1CC2CC1c1ccccc12 (stereo not drawn) [compound 4504],300
3,"Cc1c(CC(=O)N[C@@H](C)c2ncc(C#N)cn2)c(=O)[nH]c2ccc(F)c(Cl)c12 (single isomer, unassigned) [compound 2056]",60
4,Cc1c(CC(=O)N[C@@H](C)c2ccc(F)cc2F)c(=O)[nH]c2cccc(F)c12 [compound 130],30

# Same assay, conditions: rabbit psoas myofibrils; Y75 value
row,Structure (SMILES),Skeletal EC25 [nM]
1,"Cc1nccc2[nH]c(=O)c(C(F)(F)C(=O)N[C@@H](CO)c3ncc(C#N)cc3F)c(C)c12 (single isomer, unassigned) [compound 3523]",8730
2,"C[C@H](NC(=O)[C@H](C)c1cc2c(F)nccc2[nH]c1=O)c1ccc(F)cc1F (single isomer, unassigned) [compound 368]",430
3,"Cc1nccc2[nH]c(=O)c([C@H](C)C(=O)N[C@H](C)c3ncc(C#N)cc3F)c(C)c12 (single isomer, unassigned) [compound 192]",550
4,Cc1nccc2[nH]c(=O)c(CC(=O)N[C@H](CO)Cc3ccccc3)c(C)c12 [compound 495],100000
5,Cc1c(CC(=O)N[C@H](CO)c2ccc(C#N)cc2F)c(=O)[nH]c2ccc(C(F)(F)F)nc12 [compound 218],14860
6,Cc1nccc2[nH]c(=O)c(CC(=O)N[C@@H](C)c3ncc(C#N)cn3)c(C)c12 [compound 483],7320
7,C[C@H](NC(=O)Cc1cc2c(OCC(F)F)nccc2[nH]c1=O)c1ccc(F)cc1F [compound 389],250
8,Cc1c(CC(=O)N[C@@H](CO)c2ccc(C#N)cc2F)c(=O)[nH]c2ccc(C(F)(F)F)nc12 [compound 219],140
9,Cc1cnncc1[C@@H](C)NC(=O)Cc1c(C)c2c(C)nccc2[nH]c1=O [compound 480],33820
10,"COc1cccc([C@H](C)NC(=O)Cc2c(C)c3c(C)nccc3[nH]c2=O)n1 (single isomer, unassigned) [compound 310]",100000
11,Cc1nccc2[nH]c(=O)c(CC(=O)N[C@@H](C)c3ccc(F)cc3F)c(F)c12 [compound 150],90

# Same assay, conditions: rabbit psoas myofibrils; Y125 value, not a Y75 value
row,Structure (SMILES),"Skeletal EC25 (Y125 value, marked ‡)"
1,"Cc1nccc2[nH]c(=O)c(C3(C(=O)N[C@H](C)c4ncc(C#N)cc4F)CC3)c(C)c12 (single isomer, unassigned) [compound 3519]",97.12‡ μM

# Source: patent publication US12448369B2 (Edgewise Therapeutics, Inc., priority 2023, dated 2025)
